Data on four molecules can be found in patent US20250222065A1, “CYCLIC POLYPEPTIDE FOR THE TREATMENT OF PHA TYPE 1B” (priority 2015, published 2025).

Assay [1] has as its system WT αβγ-hENaC, WT δβγ-hENaC or mutant hENaC. Briefly: Amiloride block of whole-cell sodium current in transfected HEK-293 cells. The assay is classed as cell-based, human. Conditions: amiloride 10 μM, HEK-293 whole-cell sodium current. How it is done:
Concentration-response curves were plotted, and EC50 values and Hill coefficients were determined using Microcal Origin 7.0. […] Finally, amiloride was added to enable estimation of the peptide-induced increase in amiloride-sensitive Na+ current. […] Amiloride was used at 10 μM for WT αβγ-hENaC, WT δβγ-hENaC or mutant hENaC; these concentrations yielded greater than 95% hENaC inhibition. Only cells with clear amiloride response were included in data analysis.

The test system of a further assay is αβγV543fs-hENaC. Briefly: Whole cell patch clamp, HEK-293 cells expressing PHA type IB frameshift mutant αβγV543fs-hENaC. The assay is classed as cell-based, human. The conditions noted are these: HEK-293, peptide concentration 220 nM, mean ± SE, n = 5; no peptide: loss-of-function; Table 2. How it is done:
The ENaC-activating properties of cyclic peptides are tested electrophysiologically in vitro using whole cell and […] patch clamp techniques Hazemi et al, 2010; Tzotzos et al, 2013; Shabbir et al, 2013). A whole call patch clamp assay is used to measure the induced amiloride-sensitive Na+ current, calculate concentration-response curves and thus estimate the potency measured as effective concentration at half maximum response (EC50), for cyclic peptides.
In addition, mutant delta ENaC subunits were also constructed by site-directed mutagenesis, containing homologous mutations to those observed in conserved positions in the other three ENaC subunits.
Point mutations were introduced into cDNA encoding alpha, beta, gamma and delta ENaC using a commercially available site-directed mutagenesis kit (QuikChange Lightning Site-Directed Mutagenesis Kit; Agilent Technologies). […]
(§1) Whole cell currents were recorded as previously described (Shabbir et al, 2013).
(§2) Data represent the mean ±S.E. unless otherwise stated; experiments were performed on three to seven batches of independently transfected cells in the HEK-293 heterologous expression system. Statistical significance between different groups was determined using an unpaired, two-tailed Student's t test using GraphPad Prism version 3.02 (GraphPad Software, San Diego). […]
On the technique in general: In patch-clamp work, channel activity is measured electrically.

Assay [2] deals with PHA type IB mutant loss-of-function hENaC. The assay is described as follows: Whole cell patch clamp, HEK-293 cells expressing PHA type IB mutant hENaCs (overall conclusions). The assay is classed as cell-based, human. The conditions noted are these: whole cell electrophysiological assay, versus absence of peptide. How it is done:
In addition, mutant delta ENaC subunits were also constructed by site-directed mutagenesis, containing homologous mutations to those observed in conserved positions in the other three ENaC subunits. […]
as §1
Concentration-response curves were plotted, and EC50 values and Hill coefficients were determined using Microcal Origin 7.0. […]
After GOhm-seal (GΩ-seal) formation, and an equilibration period of 5 min, sodium current was recorded at Eh from —80 to +80 mV in 20 mV increments held for 1 min at each Eh.
as §2

The next assay deals with αβG37Sγ-hENaC (human, UniProt P37088 1-669; P51168 1-640; P51170 1-649). Briefly: cell-based or functional assay.
The target of a further assay is αQ101Kβγ-hENaC (human, UniProt P37088 1-669; P51168 1-640; P51170 1-649). The assay is described as follows: cell-based or functional assay.
Assay [3] has as its target αβγV543fs-hENaC (human), P37088. Briefly: cell-based or functional assay.

In the case of `N=C(N)NC(=O)c1nc(Cl)c(N)nc1N` [Amiloride, amiloride], the hENaC inhibition result in assay [1] was “greater than 95%”.

On to “Cyclo(4-aminobutanoic acid-GQRETPEGAEAKPWYD) (not fully specified; cyclized via 4-aminobutanoic acid) [AP318]”, for which the “Inward current measured (amiloride-sensitive current)” value with αβγV543fs-hENaC worked out at 177.7 ± 6.5 pA. For the same molecule, in assay [2], the “Amiloride-sensitive sodium ion current through PHA-1B mutants in the presence of peptide” value was “significantly increased”.

B1: AP318, Cyclo(4-aminobutanoic acid-GQRETPEGAEAKPWYD) (peptide)
peptide: GQRETPEGAEAKPWYD
modifications: N-terminal 4-aminobutanoic acid (GABA); cyclic: amide bond between the amino group of N-terminal 4-aminobutanoic acid and the side chain carboxyl group of the C-terminal aspartic acid
Consider B1, for which the “Inward amiloride-sensitive current, whole cell patch clamp, HEK-293, peptide concentration 220 nM” value with αβG37Sγ-hENaC turned out to be 192 pA; with αQ101Kβγ-hENaC it was 177 pA.

B2: AP318, Cyclo(4-aminobutanoic acid-…) (peptide)
peptide: GQRETPEGAEAKPWYD
modifications: here or on the partner: N-terminal 4-aminobutanoic acid (GABA); cyclic: amide bond between the amino group of N-terminal 4-aminobutanoic acid and the side chain carboxyl group of the C-terminal aspartic acid
In the case of B2, in assay [3], the Inward amiloride-sensitive current, whole cell patch clamp, HEK-293, peptide concentration 220 nM is 178 pA.
